Source: publication PMC4461206 (Acta Crystallographica Section D: Biological Crystallography, 2015)

How the values were obtained:
[1] = biological target: T1, AcdDPN7 (3-sulfinopropionyl-coenzyme A desulfinase) (Advenella mimigardefordensis, UniProt K4L7X3); assay: X-ray crystal structure, […] A; type: binding; settings: noncovalent, one per subunit, site shared by two monomers; pH 6.5
T1 construct: gene acd; His6-tagged, pET-23a::acdDPN7, E. coli BL21(DE3) pLysS; homotetramer 150-200 kDa, one FAD per subunit; residues 2-392 superimposed in the structure

[2] = biological target: T1, AcdDPN7 (3-sulfinopropionyl-coenzyme A desulfinase); assay: X-ray crystal structure, […] A; type: binding; settings: co-crystallized and soaked with succinyl-CoA, which was hydrolysed; only CoA seen in the active site (monomers A, B, D, E, F), occupancy 0.43-0.59; pH 6.5
[3] = biological target: T1, AcdDPN7 (3-sulfinopropionyl-coenzyme A desulfinase); assay: DTNB sulfite-release assay, […] nm; type: biochemical; settings: 50 mM Tris-HCl pH 7.4, 30 C, 0.2 mM DTNB, 0.1 mM 3SP-CoA, with or without O2
[4] = biological target: the molecule itself; assay: crystal structure; apo enzyme at 1.89 Å (two monomers in the asymmetric unit) and complex with CoA at 2.30 Å (six monomers, three dimers); 0.1 M Bis-tris pH 6.5, PEG 3350; 100 K
[5] = biological target: the molecule itself; assay: SEC; wild-type Acd_(DPN7) and Acd_(DPN7_R84K) run side by side; conditions not told for this run

In the case of `Cc1cc2nc3c(=O)[nH]c(=O)nc-3n(C[C@H](O)[C@H](O)[C@H](O)COP(=O)(O)OP(=O)(O)OC[C@H]3O[C@@H](n4cnc5c(N)ncnc54)[C@H](O)[C@@H]3O)c2cc1C` [FAD], the “X-ray crystal structure, 1.89 A” value [1] is reported as “AcdDPN7 is a tetramer and each monomer has one FAD noncovalently bound to the polypeptide”.

For `CC(C)(COP(=O)(O)OP(=O)(O)OC[C@H]1O[C@@H](n2cnc3c(N)ncnc32)[C@H](O)[C@@H]1OP(=O)(O)O)[C@@H](O)C(=O)NCCC(=O)NCCS` [CoA], the “X-ray crystal structure, 2.30 A” value [2] was “In the active sites of AcdDPN7 monomers A, B, D, E and F only the CoA group”.

`CC(C)(COP(=O)(O)OP(=O)(O)OC[C@H]1O[C@@H](n2cnc3c(N)ncnc32)[C@H](O)[C@@H]1OP(=O)(O)O)[C@@H](O)C(=O)NCCC(=O)NCCSC(=O)CCS(=O)O` [3SP-CoA] was tested, and the “DTNB sulfite-release assay, 412 nm” value [3] was “AcdDPN7 showed no significant difference in reaction velocity in the presence or absence of O2”.

B1: 3-Sulfinopropionyl-coenzyme A (3SP-CoA) desulfinase from Advenella mimigardefordensis DPN7T (enzyme)
chain: MYELTPEQRTLQTQARELAQSVFASTAVQTDLTEQYPWDNVAQLRDAGFMGMMLPTSVGGRGLSTLDTVIVIEEMAKACATMGRITVDSNLGAIGAITKYGSEEQIKLAADLVLAGDKPAICISEPNAGSAASEMTTRADKNGDHYILNGEKYWITGGGVSKLHLIFARVFDDGVEQGIGAFITVLDDHGPEGLKVGRRLYAMGVRGIPETHLEFHDLKIHKSMMITFPDGLKRGFAALMSAYNAQRVGAGAVALGIAQCAFEEGVAYLKRREQFGRPLAEFQGLQWMVADMSVQLEAARLMLRSAAVSGETFPDINKAAQAKIFAAETANKVTNDALQFFGSSGYGRHNPMERHVRDARMFTIAGGTAQILRTQVASKILDMKLPQTRDGYLKAAQNSKR
In the case of B1, the “stoichiometry N” value [4] is reported as 4.

B2: Acd_(DPN7_R84K) (enzyme)
chain: MYELTPEQRTLQTQARELAQSVFASTAVQTDLTEQYPWDNVAQLRDAGFMGMMLPTSVGGRGLSTLDTVIVIEEMAKACATMGKITVDSNLGAIGAITKYGSEEQIKLAADLVLAGDKPAICISEPNAGSAASEMTTRADKNGDHYILNGEKYWITGGGVSKLHLIFARVFDDGVEQGIGAFITVLDDHGPEGLKVGRRLYAMGVRGIPETHLEFHDLKIHKSMMITFPDGLKRGFAALMSAYNAQRVGAGAVALGIAQCAFEEGVAYLKRREQFGRPLAEFQGLQWMVADMSVQLEAARLMLRSAAVSGETFPDINKAAQAKIFAAETANKVTNDALQFFGSSGYGRHNPMERHVRDARMFTIAGGTAQILRTQVASKILDMKLPQTRDGYLKAAQNSKR
In the case of B2, the “stoichiometry N” value [5] is reported as 4.
